Test results: PubChem BioAssay AID2060599 (Molecular Pharmacology Branch, DTP, NCI, 2025)

System: 817829-284-R-J1-PDC complex spheroids, viability
Experiment: Anticancer human tumor 817829-284-R-J1-PDC patient-derived colon adenocarcinoma cell line growth inhibition [CLK]
Conditions: second compound 10 µM; first compound 0.01 µM; stronger effect = lower value
Method in brief: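 Multi-cell-type spheroids combined patient-derived tumor cells with HUVEC endothelial cells and human mesenchymal stem cells. Paired agents were dosed in half-log steps down from about clinical Cmax, or from 10 microM where Cmax was unknown.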
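Note: spheroids exposed to the agents for seven days before readout.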

Q: With `COc1c(OCCCN2CCOCC2)ccc2c3n(c(=NC(=O)c4cnc(N)nc4)nc12)CCN3` + CN1CCN(c2cc(C(=O)Nc3cc4cc(-c5cnn(C)c5)ccc4cn3)ccn2)CC1 as the molecule, how does the viability, T/C read?
A: 0.06%

Same assay, conditions: second compound 10 µM; first compound 0.0316 µM; stronger effect = lower value

Q: `C#Cc1c(F)ccc2cc(O)cc(-c3ncc4c(N5CC6CCC(C5)N6)nc(OCC56CCCN5CC(F)C6)nc4c3F)c12` (configuration not stated) + CN1CCN(c2cc(C(=O)Nc3cc4cc(-c5cnn(C)c5)ccc4cn3)ccn2)CC1 was tested. Which viability, T/C did it give?
A: 0.1%

Q: For `CC(CO)NC(=O)c1cc(-c2ccc(Cl)cc2)nn(-c2cnn(C)c2)c1=O` (configuration not stated) + CN1CCN(c2cc(C(=O)Nc3cc4cc(-c5cnn(C)c5)ccc4cn3)ccn2)CC1, which viability, T/C is on record?
A: 0.11%

Q: `CC(Nc1ccc2c(c1)OCCn1cc(N3C(=O)OCC3C(F)F)nc1-2)C(N)=O` (configuration not stated) + CN1CCN(c2cc(C(=O)Nc3cc4cc(-c5cnn(C)c5)ccc4cn3)ccn2)CC1 was tested. Which viability, T/C did it give?
A: 0.07%

Q: Which viability, T/C does the source give for `CCN1CCN(Cc2ccc(Nc3ncc(F)c(-c4cc(F)c5nc(C)n(C(C)C)c5c4)n3)nc2)CC1` + CN1CCN(c2cc(C(=O)Nc3cc4cc(-c5cnn(C)c5)ccc4cn3)ccn2)CC1 here?
A: 0.08%

Q: Which viability, T/C does the source give for `COc1c(OCCCN2CCOCC2)ccc2c3n(c(=NC(=O)c4cnc(N)nc4)nc12)CCN3` + CN1CCN(c2cc(C(=O)Nc3cc4cc(-c5cnn(C)c5)ccc4cn3)ccn2)CC1 here?
A: 0.1%

Same assay, conditions: second compound 10 µM; first compound 0.1 µM; stronger effect = lower value

Q: `C#Cc1c(F)ccc2cc(O)cc(-c3ncc4c(N5CC6CCC(C5)N6)nc(OCC56CCCN5CC(F)C6)nc4c3F)c12` (configuration not stated) + CN1CCN(c2cc(C(=O)Nc3cc4cc(-c5cnn(C)c5)ccc4cn3)ccn2)CC1 was tested. Which viability, T/C did it give?
A: 0.11%

Q: With `CC(CO)NC(=O)c1cc(-c2ccc(Cl)cc2)nn(-c2cnn(C)c2)c1=O` (configuration not stated) + CN1CCN(c2cc(C(=O)Nc3cc4cc(-c5cnn(C)c5)ccc4cn3)ccn2)CC1 as the molecule, how does the viability, T/C read?
A: 0.14%

Q: `CC(Nc1ccc2c(c1)OCCn1cc(N3C(=O)OCC3C(F)F)nc1-2)C(N)=O` (configuration not stated) + CN1CCN(c2cc(C(=O)Nc3cc4cc(-c5cnn(C)c5)ccc4cn3)ccn2)CC1 was tested. Which viability, T/C did it give?
A: 0.08%

Q: For `CCN1CCN(Cc2ccc(Nc3ncc(F)c(-c4cc(F)c5nc(C)n(C(C)C)c5c4)n3)nc2)CC1` + CN1CCN(c2cc(C(=O)Nc3cc4cc(-c5cnn(C)c5)ccc4cn3)ccn2)CC1, which viability, T/C is on record?
A: 0.09%

Q: Which viability, T/C does the source give for `COc1c(OCCCN2CCOCC2)ccc2c3n(c(=NC(=O)c4cnc(N)nc4)nc12)CCN3` + CN1CCN(c2cc(C(=O)Nc3cc4cc(-c5cnn(C)c5)ccc4cn3)ccn2)CC1 here?
A: 0.56%

Same assay, conditions: second compound 10 µM; first compound 0.316 µM; stronger effect = lower value

Q: Which viability, T/C does the source give for `C#Cc1c(F)ccc2cc(O)cc(-c3ncc4c(N5CC6CCC(C5)N6)nc(OCC56CCCN5CC(F)C6)nc4c3F)c12` (configuration not stated) + CN1CCN(c2cc(C(=O)Nc3cc4cc(-c5cnn(C)c5)ccc4cn3)ccn2)CC1 here?
A: 0.11%

Q: Which viability, T/C does the source give for `CC(CO)NC(=O)c1cc(-c2ccc(Cl)cc2)nn(-c2cnn(C)c2)c1=O` (configuration not stated) + CN1CCN(c2cc(C(=O)Nc3cc4cc(-c5cnn(C)c5)ccc4cn3)ccn2)CC1 here?
A: 0.17%

Q: How did the viability, T/C turn out when `CC(Nc1ccc2c(c1)OCCn1cc(N3C(=O)OCC3C(F)F)nc1-2)C(N)=O` (configuration not stated) + CN1CCN(c2cc(C(=O)Nc3cc4cc(-c5cnn(C)c5)ccc4cn3)ccn2)CC1 was run?
A: 0.13%

Q: `CCN1CCN(Cc2ccc(Nc3ncc(F)c(-c4cc(F)c5nc(C)n(C(C)C)c5c4)n3)nc2)CC1` + CN1CCN(c2cc(C(=O)Nc3cc4cc(-c5cnn(C)c5)ccc4cn3)ccn2)CC1 was tested. Which viability, T/C did it give?
A: 0.11%

Q: How did the viability, T/C turn out when `COc1c(OCCCN2CCOCC2)ccc2c3n(c(=NC(=O)c4cnc(N)nc4)nc12)CCN3` + CN1CCN(c2cc(C(=O)Nc3cc4cc(-c5cnn(C)c5)ccc4cn3)ccn2)CC1 was run?
A: 0.13%

Same assay, conditions: second compound 10 µM; first compound 1 µM; stronger effect = lower value

Q: How did the viability, T/C turn out when `C#Cc1c(F)ccc2cc(O)cc(-c3ncc4c(N5CC6CCC(C5)N6)nc(OCC56CCCN5CC(F)C6)nc4c3F)c12` (configuration not stated) + CN1CCN(c2cc(C(=O)Nc3cc4cc(-c5cnn(C)c5)ccc4cn3)ccn2)CC1 was run?
A: 0.16%

Q: With `CC(CO)NC(=O)c1cc(-c2ccc(Cl)cc2)nn(-c2cnn(C)c2)c1=O` (configuration not stated) + CN1CCN(c2cc(C(=O)Nc3cc4cc(-c5cnn(C)c5)ccc4cn3)ccn2)CC1 as the molecule, how does the viability, T/C read?
A: 0.21%

Q: Which viability, T/C does the source give for `CC(Nc1ccc2c(c1)OCCn1cc(N3C(=O)OCC3C(F)F)nc1-2)C(N)=O` (configuration not stated) + CN1CCN(c2cc(C(=O)Nc3cc4cc(-c5cnn(C)c5)ccc4cn3)ccn2)CC1 here?
A: 0.11%

Q: With `CCN1CCN(Cc2ccc(Nc3ncc(F)c(-c4cc(F)c5nc(C)n(C(C)C)c5c4)n3)nc2)CC1` + CN1CCN(c2cc(C(=O)Nc3cc4cc(-c5cnn(C)c5)ccc4cn3)ccn2)CC1 as the molecule, how does the viability, T/C read?
A: 0.08%

Q: Which viability, T/C does the source give for `COc1c(OCCCN2CCOCC2)ccc2c3n(c(=NC(=O)c4cnc(N)nc4)nc12)CCN3` + CN1CCN(c2cc(C(=O)Nc3cc4cc(-c5cnn(C)c5)ccc4cn3)ccn2)CC1 here?
A: 0.12%

Same assay, conditions: second compound 10 µM; first compound 3.16 µM; stronger effect = lower value

Q: Which viability, T/C does the source give for `C#Cc1c(F)ccc2cc(O)cc(-c3ncc4c(N5CC6CCC(C5)N6)nc(OCC56CCCN5CC(F)C6)nc4c3F)c12` (configuration not stated) + CN1CCN(c2cc(C(=O)Nc3cc4cc(-c5cnn(C)c5)ccc4cn3)ccn2)CC1 here?
A: 0.17%

Q: Which viability, T/C does the source give for `CC(CO)NC(=O)c1cc(-c2ccc(Cl)cc2)nn(-c2cnn(C)c2)c1=O` (configuration not stated) + CN1CCN(c2cc(C(=O)Nc3cc4cc(-c5cnn(C)c5)ccc4cn3)ccn2)CC1 here?
A: 0.23%

Q: `CC(Nc1ccc2c(c1)OCCn1cc(N3C(=O)OCC3C(F)F)nc1-2)C(N)=O` (configuration not stated) + CN1CCN(c2cc(C(=O)Nc3cc4cc(-c5cnn(C)c5)ccc4cn3)ccn2)CC1 was tested. Which viability, T/C did it give?
A: 0.24%

Same assay, conditions: second compound 10 µM; first compound 10 µM; stronger effect = lower value

Q: Which viability, T/C does the source give for `C#Cc1c(F)ccc2cc(O)cc(-c3ncc4c(N5CC6CCC(C5)N6)nc(OCC56CCCN5CC(F)C6)nc4c3F)c12` (configuration not stated) + CN1CCN(c2cc(C(=O)Nc3cc4cc(-c5cnn(C)c5)ccc4cn3)ccn2)CC1 here?
A: 0.13%

Q: `CC(CO)NC(=O)c1cc(-c2ccc(Cl)cc2)nn(-c2cnn(C)c2)c1=O` (configuration not stated) + CN1CCN(c2cc(C(=O)Nc3cc4cc(-c5cnn(C)c5)ccc4cn3)ccn2)CC1 was tested. Which viability, T/C did it give?
A: 0.19%

Q: With `CC(Nc1ccc2c(c1)OCCn1cc(N3C(=O)OCC3C(F)F)nc1-2)C(N)=O` (configuration not stated) + CN1CCN(c2cc(C(=O)Nc3cc4cc(-c5cnn(C)c5)ccc4cn3)ccn2)CC1 as the molecule, how does the viability, T/C read?
A: 0.14%
